# Laboratory results: patent US6160175A, “Naphthyl acetamides as sPLA2 inhibitors” (Eli Lilly and Company, priority 1996, dated 2000)
# Biological target: T1, recombinant human secreted phospholipase A2 (Homo sapiens, UniProt P14555)
# T1 sequence (P14555 21-144): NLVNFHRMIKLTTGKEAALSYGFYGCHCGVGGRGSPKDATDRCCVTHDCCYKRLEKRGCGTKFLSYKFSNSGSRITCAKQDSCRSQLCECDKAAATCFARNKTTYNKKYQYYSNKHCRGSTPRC
# Experiment: Chromogenic assay; Human Secreted Phospholipase A2 Inhibition Tests
# Format: biochemical
# Settings: racemic diheptanoyl thio-PC substrate 1 mM, Triton X-100 0.29 mM, pH 7.5, 40° C., 30 minutes, 405 nm; read-out: Inhibition of human secreted PLA2, IC50 ± mean deviation (3-4 tests)
# Excerpt: The following chromogenic assay procedure was used to identify and evaluate inhibitors of recombinant human secreted phospholipase A2. The assay described herein has been adapted for high volume screening using 96 well microtiter plates. A general description of this assay method is found in the article, "Analysis of Human Synovial Fluid Phospholipase A2 on Short Chain Phosphatidylcholine-Mixed Micelles: Development of a Spectrophotometric Assay Suitable for a Microtiterplate Reader", by Laure J. Reynolds, Lori L. Hughes, and Edward A. Dennis, Analytical Biochemistry, 204, pp. 190-197, 1992 (the disclosure of which is incorporated herein by reference):
# A measured volume of racemic dipheptanoyl thio PC supplied in chloroform at a concentration of 100 mg/ml is taken to dryness and redissolved in 10 millimolar TRITON X-100™ nonionic detergent aqueous solution. Reaction Buffer is added to the solution, then DTNB to give the Reaction Mixture.
# The reaction mixture thus obtained contains 1 mM diheptanoly thio-PC substrate, 0.29 mm Triton X-100™ detergent, and 0.12 mm DTMB in a buffered aqueous solution at pH 7.5.
# 1. Add 0.2 ml reaction mixture to all wells;
# 2. Add 10 ul test compound (or solvent blank) to appropriate wells, mix 20 seconds;
# 3. Add 50 nanograms of sPLA2 (10 microliters) to appropriate wells;
# 4. Incubate plate at 40° C. for 30 minutes;
# 5. Read absorbance of wells at 405 nanometers with an automatic plate reader.
# All compounds were tested in triplicate. Typically, compounds were tested at a final concentration of 5 ug/ml. […] Lack of color development at 405 nanometers evidenced inhibition. Compounds initially found to be active were reassayed to confirm their activity and, if sufficiently active, IC50 values were determined. […] In all cases, % inhibition measured at 405 nanometers generated by enzyme reactions containing inhibitors relative to the uninhibited control reactions was determined. […] IC50 were determined by plotting log concentration versus inhibition values in the range from 10-90% inhibition.
row,Compound,IC50 [µM]
1,"NC(=O)Cc1ccc(Cc2ccccc2)c2ccccc12 [Compound A, 4-Benzyl-1-naphphylacetamide]",0.87
2,"O=C(O)Cc1ccc(Oc2ccccc2)c2ccccc12 [Compound B, 4-Phenoxynaphth-1-yl acetic acid]",51
3,"NC(=O)Cc1ccc(Oc2ccccc2)c2ccccc12 [Compound C, 4-Phenoxynaphth-1-yl acetamide]",4.4
